Measured values taken from US10689378B2, “Triazolopyridine compounds and uses thereof” (Novartis AG, priority 2016, dated 2020).

What was measured:
[1] = tested on: H3K27 methylation in G401 cell; assay: ELISA (H3K27 methylation) assay in G401 cells; type: cell-based, human; details: Homo sapiens, G-401, read-out: (c) IC50 ELISA Qualified
Method in brief: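 IC50 from dose-response fit of percent inhibition relative to DMSO, using H3K27me3/me2 ELISA signal (ECL) normalized to histone H3. Histones HCl-extracted after 48 h compound exposure of G401 cells at up to 20 μM, 8- or 12-point 3-fold series.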

[2] = target: wild type PRC2 (wtPRC2) complex (Homo sapiens, UniProt O75530); assay: EED LC-MS assay (SAH production by PRC2); type: biochemical; details: read-out: (b) IC50 EED LC-MS Qualified
Method in brief: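 LC-MS/MS readout of SAH (d4-SAH standard) after TFA quench gives PRC2 activity, normalized to controls and fitted to dose-response for IC50. Reaction: 12 nM EZH2/SUZ12/EED/Rbap48/AEBP complex, 1 μM SAM, 1.5 μM H3[21-44] peptide, 120 min rt, 20 min compound preincubation.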

EED (1-441)-His protein = target: T1, EED (1-441)-His protein (Homo sapiens, UniProt O75530); assay: EED-H3K27Me3 peptide competition binding assay by AlphaScreen; details: read-out: (a) IC50 EED Alphascreen binding Qualified
T1 construct: 30 nM EED (1-441)-His protein
Method in brief: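 Serially diluted compound (12 points, 3-fold) incubated 20 min with 30 nM EED(1-441)-His and 15 nM biotin-H3K27Me3(19-33) peptide in 25 mM HEPES pH 8, 0.02% Tween-20, 0.5% BSA. Ni-chelate acceptor/streptavidin donor beads (10 μg/mL each) added, 1 h rt dark; 615 nm emission normalized to controls, dose-response fit for IC50.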

T1 sequence (O75530 whole entry): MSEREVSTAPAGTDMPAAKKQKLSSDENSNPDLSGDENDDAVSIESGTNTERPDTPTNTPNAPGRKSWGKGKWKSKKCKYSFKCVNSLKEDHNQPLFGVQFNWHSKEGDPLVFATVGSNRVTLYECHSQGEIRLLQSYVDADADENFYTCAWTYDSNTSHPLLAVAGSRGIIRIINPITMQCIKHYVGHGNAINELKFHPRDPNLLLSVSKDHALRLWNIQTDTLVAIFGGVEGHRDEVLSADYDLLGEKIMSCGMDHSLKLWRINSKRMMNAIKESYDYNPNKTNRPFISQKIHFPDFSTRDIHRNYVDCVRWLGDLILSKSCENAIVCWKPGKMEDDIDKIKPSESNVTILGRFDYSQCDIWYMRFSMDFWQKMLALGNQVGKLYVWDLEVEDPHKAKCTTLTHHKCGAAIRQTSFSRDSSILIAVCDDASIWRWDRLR
Chain of wild type PRC2 (wtPRC2) complex (O75530 whole entry): as above
Chain of wild type PRC2 (wtPRC2) complex (Q15910 whole entry partner): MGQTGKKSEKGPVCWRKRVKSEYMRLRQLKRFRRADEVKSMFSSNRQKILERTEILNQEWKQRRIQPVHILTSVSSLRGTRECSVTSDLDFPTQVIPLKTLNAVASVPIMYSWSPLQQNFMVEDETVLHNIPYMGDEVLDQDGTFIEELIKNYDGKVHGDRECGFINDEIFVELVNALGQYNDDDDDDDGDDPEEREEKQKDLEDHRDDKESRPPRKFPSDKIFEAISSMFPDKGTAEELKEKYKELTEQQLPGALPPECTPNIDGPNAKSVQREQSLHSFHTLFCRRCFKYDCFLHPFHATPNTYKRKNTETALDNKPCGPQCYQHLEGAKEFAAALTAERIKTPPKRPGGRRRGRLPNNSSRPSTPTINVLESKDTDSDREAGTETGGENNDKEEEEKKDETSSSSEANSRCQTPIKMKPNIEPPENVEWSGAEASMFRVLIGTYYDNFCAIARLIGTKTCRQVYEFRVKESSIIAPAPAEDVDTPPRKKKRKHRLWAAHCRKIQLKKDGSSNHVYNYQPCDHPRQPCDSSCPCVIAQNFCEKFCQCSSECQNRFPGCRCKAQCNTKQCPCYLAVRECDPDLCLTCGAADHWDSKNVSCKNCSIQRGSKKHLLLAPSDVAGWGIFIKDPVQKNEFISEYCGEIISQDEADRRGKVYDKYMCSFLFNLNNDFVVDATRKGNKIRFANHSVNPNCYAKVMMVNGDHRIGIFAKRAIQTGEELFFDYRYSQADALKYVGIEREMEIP
Chain of wild type PRC2 (wtPRC2) complex (Q15022 whole entry partner): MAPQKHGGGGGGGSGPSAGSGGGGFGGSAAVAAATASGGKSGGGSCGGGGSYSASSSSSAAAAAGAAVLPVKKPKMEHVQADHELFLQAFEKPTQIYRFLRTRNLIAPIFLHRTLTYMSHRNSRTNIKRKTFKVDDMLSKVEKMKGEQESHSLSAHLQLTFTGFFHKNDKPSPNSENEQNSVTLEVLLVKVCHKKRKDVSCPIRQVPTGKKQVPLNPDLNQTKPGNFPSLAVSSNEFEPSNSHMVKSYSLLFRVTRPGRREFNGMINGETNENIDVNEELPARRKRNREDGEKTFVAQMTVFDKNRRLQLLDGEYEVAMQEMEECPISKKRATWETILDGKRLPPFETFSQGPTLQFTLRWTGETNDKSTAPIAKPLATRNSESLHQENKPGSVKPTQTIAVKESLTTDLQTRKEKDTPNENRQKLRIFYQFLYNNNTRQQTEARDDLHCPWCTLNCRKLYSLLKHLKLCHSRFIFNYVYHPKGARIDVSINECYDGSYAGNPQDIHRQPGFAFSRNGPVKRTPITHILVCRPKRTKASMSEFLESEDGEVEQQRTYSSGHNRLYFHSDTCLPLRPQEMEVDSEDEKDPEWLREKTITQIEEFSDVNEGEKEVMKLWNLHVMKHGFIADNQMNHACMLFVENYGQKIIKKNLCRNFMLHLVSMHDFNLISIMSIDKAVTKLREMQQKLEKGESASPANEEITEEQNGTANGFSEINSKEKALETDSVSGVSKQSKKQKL
Chain of wild type PRC2 (wtPRC2) complex (Q09028 whole entry partner): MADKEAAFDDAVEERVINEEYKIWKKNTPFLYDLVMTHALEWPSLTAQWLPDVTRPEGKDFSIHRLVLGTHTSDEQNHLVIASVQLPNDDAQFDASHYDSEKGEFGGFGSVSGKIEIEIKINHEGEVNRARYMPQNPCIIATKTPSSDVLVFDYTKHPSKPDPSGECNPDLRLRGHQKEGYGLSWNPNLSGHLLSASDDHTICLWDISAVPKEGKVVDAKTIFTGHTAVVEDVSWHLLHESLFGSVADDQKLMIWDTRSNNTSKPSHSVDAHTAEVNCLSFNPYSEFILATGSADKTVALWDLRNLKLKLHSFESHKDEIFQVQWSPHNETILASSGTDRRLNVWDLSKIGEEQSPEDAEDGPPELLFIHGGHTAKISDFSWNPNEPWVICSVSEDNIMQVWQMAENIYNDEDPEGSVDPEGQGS
Chain of wild type PRC2 (wtPRC2) complex (Q6ZN18 whole entry partner): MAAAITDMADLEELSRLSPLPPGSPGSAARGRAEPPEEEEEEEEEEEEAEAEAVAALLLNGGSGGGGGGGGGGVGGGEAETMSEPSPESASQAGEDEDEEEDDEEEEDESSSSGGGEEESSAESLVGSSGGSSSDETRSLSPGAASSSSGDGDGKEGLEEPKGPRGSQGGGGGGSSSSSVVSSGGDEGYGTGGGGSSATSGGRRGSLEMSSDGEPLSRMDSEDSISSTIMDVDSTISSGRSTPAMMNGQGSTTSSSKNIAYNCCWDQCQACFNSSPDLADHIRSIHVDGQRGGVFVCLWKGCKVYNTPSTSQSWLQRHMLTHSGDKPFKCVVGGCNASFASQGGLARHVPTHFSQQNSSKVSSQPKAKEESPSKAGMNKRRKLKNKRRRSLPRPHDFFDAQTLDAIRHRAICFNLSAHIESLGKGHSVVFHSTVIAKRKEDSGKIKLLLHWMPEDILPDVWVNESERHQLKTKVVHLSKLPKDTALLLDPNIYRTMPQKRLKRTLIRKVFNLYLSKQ

| SMILES | IC50 [1] | IC50 [2] | IC50 (EED (1-441)-His protein) |
| --- | --- | --- | --- |
| COc1cccc(F)c1CNc1ccc(-n2cnc(C)c2)c2nncn12 [Example 354, N-(2-fluoro-6-methoxybenzyl)-8-(4-methyl-1H-imidazol-1-yl)-[1,2,4]triazolo [4,3-a]pyridin-5-amine] | 21.4 nM | 60.6 nM | 26.1 nM |
| COc1cccc(F)c1CNc1ccc(-c2nc(C)nn2C)c2nncn12 [Example 355, 8-(1,3-dimethyl-1H-1,2,4-triazol-5-yl)-N-(2-fluoro-6-methoxybenzyl)-[1,2,4] triazolo[4,3-a]pyridin-5-amine] | 11.7 nM | 30.5 nM | 15.8 nM |
| COc1cccc(F)c1CNc1ccc(-c2ncnn2C)c2nncn12 [Example 356, N-(2-fluoro-6-methoxybenzyl)-8-(1-methyl-1H-1,2,4-triazol-5-yl)-[1,2,4] triazolo[4,3-a]pyridin-5-amine] | 14 nM | 117 nM | 19 nM |
| COc1cccc(F)c1CNc1ccc(-n2cccn2)c2nncn12 [Example 357, N-(2-fluoro-6-methoxybenzyl)-8-(1H-pyrazol-1-yl)-[1,2,4]triazolo[4,3-a]pyridin-5-amine] | 38.9 nM | 144 nM | 25.6 nM |
| COc1cccc(F)c1CNc1ccc(-n2cncn2)c2nncn12 [Example 358, N-(2-fluoro-6-methoxybenzyl)-8-(1H-1,2,4-triazol-1-yl)-[1,2,4]triazolo[4,3-a] pyridin-5-amine] | 19.5 nM | 286 nM | 17.1 nM |
| COc1cccc(F)c1CNc1ccc(-n2ccc(C)n2)c2nncn12 [Example 359, N-(2-fluoro-6-methoxybenzyl)-8-(3-methyl-1H-pyrazol-1-yl)-[1,2,4]triazolo [4,3-a]pyridin-5-amine] | 55.1 nM | 274 nM | 42.9 nM |
| COc1cccc(F)c1CNc1ccc(-n2ccnn2)c2nncn12 [Example 361, N-(2-fluoro-6-methoxybenzyl)-8-(1H-1,2,3-triazol-1-yl)-[1,2,4]triazolo[4,3-a] pyridin-5-amine] | 21.1 nM | 69.6 nM | 15.1 nM |
| COc1cccc(F)c1CNc1ccc(-n2ccnc2C)c2nncn12 [Example 362, N-(2-fluoro-6-methoxybenzyl)-8-(2-methyl-1H-imidazol-1-yl)-[1,2,4]triazolo [4,3-a]pyridin-5-amine] | 17 nM | 33.4 nM | 39.8 nM |
| COc1cccc(F)c1CNc1ccc(-n2ccnc2)c2nncn12 [Example 363, N-(2-fluoro-6-methoxybenzyl)-8-(1H-imidazol-1-yl)-[1,2,4]triazolo[4,3-a] pyridin-5-amine] | 19.3 nM | 55.4 nM | 25 nM |
| COc1cccc(F)c1CNc1ccc(-c2cnc(C)n2C)c2nncn12 [Example 366, 8-(1,2-dimethyl-1H-imidazol-5-yl)-N-(2-fluoro-6-methoxybenzyl)-[1,2,4]triazolo[4,3-a]pyridin-5-amine] | 3.4 nM | 45.5 nM | 13.3 nM |
| COc1cccc(F)c1CNc1ccc(-n2cc(C)c(C)n2)c2nncn12 [Example 367, 8-(3,4-dimethyl-1H-pyrazol-1-yl)-N-(2-fluoro-6-methoxybenzyl)-[1,2,4]triazolo[4,3-a] pyridin-5-amine] | 29.1 nM | 113 nM | 23.5 nM |
| COc1cccc(F)c1CNc1ccc(-c2ccc(NC(=O)N(C)C)nc2C)c2nncn12 [Example 368, 3-(5-(5-((2-fluoro-6-methoxybenzyl)amino)-[1,2,4]triazolo[4,3-a]pyridin-8-yl)-6-methylpyridin-2-yl)-1,1-dimethylurea] | 6.5 nM | 70.9 nM | 11.7 nM |
| COc1cccc(F)c1CNc1ccc(-c2ccc(C(C)(C)C#N)nc2C)c2nncn12 [Example 369, 2-(5-(5-((2-fluoro-6-methoxybenzyl)amino)-[1,2,4]triazolo[4,3-a]pyridin-8-yl)-6-methylpyridin-2-yl)-2-methylpropanenitrile] | 2.9 nM | 205 nM | 5.2 nM |
| COc1cccc(F)c1CNc1ccc(-c2c(C)cnn2C)c2nncn12 [Example 370, 8-(1,4-dimethyl-1H-pyrazol-5-yl)-N-(2-fluoro-6-methoxybenzyl)-[1,2,4]triazolo[4,3-a] pyridin-5-amine] | 20 nM | 108 nM | 25.8 nM |
| COc1cccc(F)c1CNc1ccc(-c2cnc(C)nc2OC)c2nncn12 [Example 372, N-(2-fluoro-6-methoxybenzyl)-8-(4-methoxy-2-methylpyrimidin-5-yl)-[1,2,4]triazolo[4,3-a]pyridin-5-amine] | 33.8 nM | 118 nM | 21.1 nM |
| COc1cc(F)cc(F)c1CNc1ccc(-c2cnc(C)nc2OC)c2nncn12 [Example 373, N-(2,4-difluoro-6-methoxybenzyl)-8-(4-methoxy-2-methylpyrimidin-5-yl)-[1,2,4] triazolo[4,3-a]pyridin-5-amine] | 64.1 nM | 494 nM | 48.7 nM |
| COc1ncccc1CNc1ccc(-c2ccc(CN(C)C)cc2)c2nncn12 [Example 374, 8-(4-((dimethylamino)methyl)phenyl)-N-((2-methoxypyridin-3-yl)methyl)-[1,2,4]triazolo[4,3-a] pyridin-5-amine] | 46.7 nM | 144 nM | 58.3 nM |
